The record followed here is patent US12528816B2, “Substituted imidazo [1,2-b] pyridazines and [1, 2, 4] triazolo [ 4,3-b] pyridazines as camkii inhibitors” (Cardurion Pharmaceuticals, INC., priority 2020, dated 2026).

pIC50: −log10 of the molar value.

One assay has as its target T1, human CaMKIIδ (Homo sapiens, UniProt Q13557).
T1 construct: Full-length, glutathione-S-transferase(GST)-tagged, human CaMKIIδ was purchased from Carna Biosciences; purchased Carna Biosciences (CaMKIIδ); Wako Pure Chemical Industries (calmodulin) 02-111
Put plainly: Evaluation of in vitro CaMKII inhibitory activity (binding assay, TR-FRET). The settings on record: human CaMKIIδ, TR-FRET binding assay; class symbols A/B/C; read-out: Act (CaMKII inhibitory activity, binding assay). A digest of the protocol: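 Inhibitors, in eight concentrations of 4-fold dilution, were incubated 1 h at room temperature with a protein–fluorescent probe premix preformed 30 min on ice, containing calmodulin and terbium anti-GST antibody. Displacement read by TR-FRET in duplicate; IC50 by logistic fitting.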
On to `C[C@@H](Cn1cnnn1)Oc1cncc(-c2ccc3ncc(-c4nccc(C(F)F)c4C#N)n3n2)n1` [compound 471], for which the pIC50 is below 7.00.
Still for that read-out and setting: the value for `CC[C@@H](Cn1cnnn1)Oc1cc(-c2ccc3ncc(-c4nccc(OC)c4C#N)n3n2)ccc1F` [compound 476] was above 8.00; that for `COc1ccnc(-c2cnc3ccc(-c4ccc(F)c(N(C)[C@@H](C)Cn5cnnn5)c4)nn23)c1C#N` [compound 479] was below 7.00.
Same read-out and setting: the value for `COc1cc(F)cc(-c2cnc3ccc(-c4cccc(N[C@@H](C)Cn5cnnn5)n4)nn23)c1C#N` [compound 480] was above 8.00; that for `COc1cc(F)cc(-c2cnc3ccc(-c4cc(N[C@@H](C)Cn5cnnn5)ccn4)nn23)c1C#N` [compound 481] was above 8.00.
The same measure, in the same setting: the value for `COc1cc(F)cc(-c2cnc3ccc(-c4cncc(N[C@@H](C)Cn5cnnn5)c4)nn23)c1C#N` [compound 482] was above 8.00.

Staying with this assay, now noted: in vitro CaMKII inhibitory activity (binding assay), human CaMKIIδ; read-out: Act.
Consider `COc1cccc(-c2cnc3ccc(-c4cccc(O[C@@H](C)Cn5cnnn5)n4)nn23)c1C#N` [compound 404, 2-methoxy-6-[6-(6-{[(2S)-1-(1H-tetrazol-1-yl)propan-2-yl]oxy}pyridin-2-yl)imidazo[1,2-b]pyridazin-3-yl]benzonitrile], for which the pIC50 was above 8.00.
As to `C[C@@H](Cn1cnnn1)Oc1cccc(-c2ccc3ncn(-c4cc(F)cc(OC(F)F)c4C#N)c3n2)n1` [compound 405], the pIC50 is above 8.00.
On the same count and under the same terms, the value for `C[C@@H](Cn1cnnn1)Oc1cncc(-c2ccc3ncn(-c4cc(F)cc(OC(F)F)c4C#N)c3n2)n1` [compound 406] was 7.00 to 8.00; that for `C[C@@H](Cn1cnnn1)Oc1cccc(-c2ccc3ncn(-c4cc(F)cc(C(F)F)c4C#N)c3n2)n1` [compound 407] was 7.00 to 8.00; that for `COc1cc(F)c(C#N)c(-c2cnc3ccc(-c4cccc(O[C@@H](C)Cn5cnnn5)n4)nn23)c1` [compound 408] was above 8.00.
On the same count and under the same terms, with `COc1cc(F)cc(-n2cnc3ccc(-c4cc(O[C@@H](C)Cn5cnnn5)ccn4)nc32)c1C#N` [compound 411] the figure was above 8.00; with `COc1ccnc(-c2cnc3ccc(-c4cccc(O[C@@H](C)Cn5cnnn5)n4)nn23)c1C#N` [compound 414], 7.00 to 8.00.
The same measure, in the same setting: with `C[C@@H](Cn1cnnn1)Oc1cccc(-c2ccc3ncc(-c4cnccc4C#N)n3n2)n1` [compound 415] the figure was above 8.00.
In the case of `C[C@@H](Cn1cnnn1)Oc1cccc(-c2ccc3ncc(-c4ccc(F)cc4C#N)n3n2)n1` [compound 418], the pIC50 was 7.00 to 8.00.
The same measure, in the same setting: the value for `C[C@@H](Cn1cnnn1)Oc1cccc(-c2ccc3ncc(-c4cccc(F)c4C#N)n3n2)n1` [compound 419] was above 8.00; that for `COc1ccc(C#N)c(-c2cnc3ccc(-c4cccc(O[C@@H](C)Cn5cnnn5)n4)nn23)c1` [compound 420] was above 8.00.
Turning to `C[C@@H](Cn1cnnn1)Oc1cccc(-c2ccc3ncc(-c4cc(F)cc(F)c4C#N)n3n2)n1` [compound 421], the pIC50 was above 8.00.
As to `C[C@@H](Cn1cnnn1)Oc1cccc(-c2ccc3ncc(-c4c(C#N)ccc(F)c4F)n3n2)n1` [compound 422], the pIC50 was above 8.00.
Regarding `C[C@@H](Cn1cnnn1)Oc1cccc(-c2ccc3ncc(-c4c(F)ccc(F)c4C#N)n3n2)n1` [compound 423], the pIC50 was above 8.00.
Same read-out and setting: with `COc1cc(F)c(C#N)c(-n2cnc3ccc(-c4cccc(O[C@@H](C)Cn5cnnn5)n4)nc32)c1` [compound 424] the figure was above 8.00; with `C[C@@H](Cn1cnnn1)Oc1cccc(-c2ccc3ncc(-c4ccccc4C#N)n3n2)n1` [compound 425, 2-[6-(6-{[(2S)-1-(1H-tetrazol-1-yl)propan-2-yl]oxy}pyridin-2-yl)imidazo[1,2-b]pyridazin-3-yl]benzonitrile], above 8.00; with `COc1cccc(-c2cnc3ccc(-c4cncc(O[C@@H](C)Cn5cnnn5)n4)nn23)c1C#N` [compound 428, 2-methoxy-6-[6-(6-{[(2S)-1-(1H-tetrazol-1-yl)propan-2-yl]oxy}pyrazin-2-yl)imidazo[1,2-b]pyridazin-3-yl]benzonitrile], above 8.00.
As for `COc1ccnc(-c2cnc3ccc(-c4cncc(O[C@@H](C)Cn5cnnn5)n4)nn23)c1C#N` [compound 429], the pIC50 was below 7.00.
Still for that read-out and setting: the value for `COc1ccnc(-c2cnn3ccc(-c4cccc(O[C@@H](C)Cn5cnnn5)n4)nc23)c1C#N` [compound 430] was below 7.00; that for `C[C@@H](Cn1cnnn1)Oc1cc(-c2ccc3ncc(-c4[nH]ccc(=O)c4C#N)n3n2)ccc1F` [compound 431, 2-[6-(4-fluoro-3-{[(2S)-1-(1H-tetrazol-1-yl)propan-2-yl]oxy}phenyl)imidazo[1,2-b]pyridazin-3-yl]-4-oxo-1,4-dihydropyridine-3-carbonitrile] was below 7.00.
Regarding `COc1cccc(-c2cnc3ccc(-c4ccc(F)c(O[C@@H](C)Cn5cnnn5)c4)nn23)n1` [compound 432], the pIC50 was above 8.00.
On to `C[C@@H](Cn1cnnn1)Oc1cccc(-c2ccc3ncc(-c4cc(F)c(F)cc4C#N)n3n2)n1` [compound 433], for which the pIC50 was above 8.00.
Same read-out and setting: with `C[C@@H](Cn1cnnn1)Oc1cccc(-c2ccc3ncc(-c4cc(F)cnc4C#N)n3n2)c1` [compound 434] the figure was above 8.00; with `C[C@@H](Cn1cnnn1)Oc1cc(-c2ccc3ncc(-c4c(C#N)c(=O)ccn4CF)n3n2)ccc1F` [compound 436], 7.00 to 8.00; with `COc1ccnc(-c2cnn3ccc(-c4ccc(F)c(O[C@@H](C)Cn5cnnn5)c4)nc23)c1C#N` [compound 437], above 8.00.
On the same count and under the same terms, with `COc1cc(F)cc(-c2cnc3ccc(-c4cc(O[C@@H](C)Cn5cnnn5)ccn4)nn23)c1C#N` [compound 438] the figure was above 8.00; with `COc1cc(F)cc(-n2cnc3ccc(-c4ccc(F)c(O[C@@H](C)Cn5cnnn5)n4)nc32)c1C#N` [compound 439], above 8.00; with `COc1cc(OC)c(C#N)c(-n2cnc3ccc(-c4cccc(O[C@@H](C)Cn5cnnn5)n4)nc32)c1` [compound 440], 7.00 to 8.00.
Same read-out and setting: with `C[C@@H](Cn1cnnn1)Oc1cncc(-c2ccc3ncc(-c4cc(Cl)ccc4C#N)n3n2)n1` [compound 441] the figure was above 8.00.
For the compound `C[C@@H](Cn1cnnn1)Oc1cccc(-c2ccc3ncn(-c4cc(Cl)ccc4C#N)c3n2)n1` [compound 442], the pIC50 is above 8.00.
Turning to `COc1cc(F)cc(-c2cnc3ccc(-c4cncc(O[C@@H](C)Cn5cncn5)n4)nn23)c1C#N` [compound 443], the pIC50 is above 8.00.
Same read-out and setting: the value for `COc1ccnc(-c2cnc3ccc(-c4ccc(F)c(O[C@@H](C)Cn5ncnn5)c4)nn23)c1C#N` [compound 444] was above 8.00; that for `C[C@@H](Cn1cnnn1)Oc1cncc(-c2ccc3ncn(-c4cc(Cl)ccc4C#N)c3n2)n1` [compound 445] was 7.00 to 8.00; that for `C[C@@H](Cn1cnnn1)Oc1cncc(-c2ccc3ncn(-c4cccc(Cl)c4C#N)c3n2)n1` [compound 446] was below 7.00.
The same measure, in the same setting: the value for `C[C@@H](Cn1cnnn1)Oc1nc(-c2ccc3ncc(-c4cc(F)ccc4C#N)n3n2)ccc1F` [compound 449] was above 8.00; that for `C[C@@H](Cn1cnnn1)Oc1cccc(-c2ccc3ncc(-c4ncc(F)cc4C#N)n3n2)c1` [compound 450] was above 8.00; that for `C[C@@H](Cn1cnnn1)Oc1cccc(-c2ccc3ncc(-c4nc(F)c(F)cc4C#N)n3n2)c1` [compound 451] was above 8.00.
With `C[C@@H](Cn1cnnn1)Oc1cccc(-c2ccc3ncn(-c4cccc(Cl)c4C#N)c3n2)n1` [compound 453], the pIC50 was 7.00 to 8.00.
On the same count and under the same terms, with `COc1cc(Cl)cc(-n2cnc3ccc(-c4cccc(O[C@@H](C)Cn5cnnn5)n4)nc32)c1C#N` [compound 454] the figure was above 8.00; with `COc1cc(Cl)cc(-c2cnc3ccc(-c4cncc(O[C@@H](C)Cn5cnnn5)n4)nn23)c1C#N` [compound 455], above 8.00; with `COc1cc(OC)c(C#N)c(-c2cnc3ccc(-c4cccc(O[C@@H](C)Cn5cnnn5)n4)nn23)c1` [compound 456], above 8.00.
For `C[C@@H](Cn1cnnn1)Oc1cccc(-c2ccc3ncc(-c4nccc(C(F)F)c4C#N)n3n2)n1` [compound 457], the pIC50 was 7.00 to 8.00.
Still for that read-out and setting: with `C[C@@H](Cn1cnnn1)Oc1cccc(-c2ccc3ncc(-c4ncccc4C#N)n3n2)n1` [compound 458] the figure was below 7.00; with `COc1ncnc(-c2cnc3ccc(-c4cccc(O[C@@H](C)Cn5cnnn5)n4)nn23)c1C#N` [compound 459], below 7.00; with `C[C@@H](Cn1cnnn1)Oc1cccc(-c2ccc3ncc(-c4ccc(F)c(F)c4C#N)n3n2)n1` [compound 460], 7.00 to 8.00.
Same read-out and setting: the value for `C[C@@H](Cn1cnnn1)Oc1cccc(-c2ccc3ncc(-c4c(F)cccc4C#N)n3n2)n1` [compound 461] was 7.00 to 8.00; that for `COCc1cc(F)cc(-c2cnc3ccc(-c4cccc(O[C@@H](C)Cn5cnnn5)n4)nn23)c1C#N` [compound 462] was above 8.00.
Still for that read-out and setting: the value for `COc1cc(-c2cnc3ccc(-c4cccc(O[C@@H](C)Cn5cnnn5)n4)nn23)c(C#N)cn1` [compound 463] was above 8.00; that for `C[C@@H](Cn1cnnn1)Oc1cccc(-c2ccc3ncc(-c4cc(=O)[nH]cc4C#N)n3n2)n1` [compound 464] was above 8.00; that for `C[C@@H](Cn1cnnn1)Oc1cccc(-c2ccc3ncc(-c4cc(=O)n(C)cc4C#N)n3n2)n1` [compound 465] was above 8.00.
For the compound `C[C@@H](Cn1cnnn1)Oc1cccc(-c2ccc3ncc(-c4ccc(C#N)c(F)n4)n3n2)c1` [compound 468], the pIC50 was above 8.00.
On to `COCCOc1ccnc(-c2cnc3ccc(-c4cccc(O[C@@H](C)Cn5cnnn5)c4)nn23)c1C#N` [compound 469], for which the pIC50 was above 8.00.
Take `COc1cncc(-c2cnc3ccc(-c4ccc(F)c(O[C@@H](C)Cn5cnnn5)c4)nn23)c1C#N` [compound 470]: the pIC50 is above 8.00.
